One assay has as its target T1, Beta-glucuronidase (Bos taurus, UniProt A3KMY8).
T1 sequence (A3KMY8 whole entry): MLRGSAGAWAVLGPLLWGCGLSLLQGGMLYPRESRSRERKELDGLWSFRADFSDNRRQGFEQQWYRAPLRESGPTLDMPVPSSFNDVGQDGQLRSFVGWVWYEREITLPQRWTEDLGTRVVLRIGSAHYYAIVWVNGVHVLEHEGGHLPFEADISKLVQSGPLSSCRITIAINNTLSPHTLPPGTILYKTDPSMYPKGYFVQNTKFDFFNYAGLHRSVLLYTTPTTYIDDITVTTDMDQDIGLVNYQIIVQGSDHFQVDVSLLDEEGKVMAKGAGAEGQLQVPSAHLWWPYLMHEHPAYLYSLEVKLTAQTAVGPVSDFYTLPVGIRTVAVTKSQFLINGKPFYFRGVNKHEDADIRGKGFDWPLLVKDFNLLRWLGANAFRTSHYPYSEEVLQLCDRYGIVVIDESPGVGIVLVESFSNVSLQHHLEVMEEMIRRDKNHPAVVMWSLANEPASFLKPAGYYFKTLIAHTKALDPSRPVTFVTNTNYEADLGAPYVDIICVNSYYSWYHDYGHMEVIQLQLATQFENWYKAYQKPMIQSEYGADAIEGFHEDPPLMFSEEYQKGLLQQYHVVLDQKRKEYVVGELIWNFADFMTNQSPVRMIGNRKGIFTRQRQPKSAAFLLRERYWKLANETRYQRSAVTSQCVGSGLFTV
As to the kind of experiment: Inhibition of bovine liver beta-glucuronidase using p-nitrophenyl-beta-D-glucuronide as substrate preincubated for 30 mins followed by substrate addition by spectrophotometric analysis.

The target of assay [1] is T2, Beta-glucuronidase (Bos taurus) (UniProt A3KMY8).
T2 sequence (whole entry): T1 sequence (A3KMY8 whole entry)
As to the kind of experiment: Potency index, ratio of saccharic acid 1,4-lactone IC50 to test compound IC50 for bovine liver beta-glucuronidase.

A word on the IC50: it is the concentration at which inhibition is half-maximal. Read a high IC50 as a need for much substance. `O=S(=O)(Nc1cccc2cccnc12)c1ccc(Cl)cc1` had an IC50 on Beta-glucuronidase of 33.4 µM.

At Beta-glucuronidase, `COc1ccc(-c2nc3ccccc3c(=O)[nH]2)cc1` came in with a 50% inhibitory concentration (IC50) of 1.1 µM.

Compound `COc1ccc(S(=O)(=O)Nc2cccc3cccnc23)cc1` gave an IC50 against Beta-glucuronidase of 49.2 µM.

In turn, `O=S(=O)(Nc1cnc2ccccc2c1)c1ccccc1` yielded a half-inhibitory concentration (IC50) against Beta-glucuronidase of 53.4 µM.

For `O=S(=O)(Oc1cccc2cccnc12)c1ccccc1`, half-maximal inhibition against Beta-glucuronidase (IC50) required 49.5 µM.

`Cc1cc(S(=O)(=O)Oc2cccc3cccnc23)c(C)cc1Cl` came in with an IC50 at Beta-glucuronidase of 41.6 µM.

Consider `O=S(=O)(Nc1cccc2cccnc12)c1ccc(Cl)cc1Cl`, for which, in assay [1], the Ratio IC50 stood at 8. Further, the half-inhibitory concentration (IC50) at Beta-glucuronidase was 6.1 µM.

`COc1ccc(Br)cc1S(=O)(=O)Nc1cccc2ncccc12`: at Beta-glucuronidase, the IC50 amounted to 50.2 µM.

On to `O=S(=O)(Nc1cnc2ccccc2c1)c1ccc(Cl)cc1Cl`, for which, in assay [1], the Ratio IC50 is 6. Also, the 50% inhibitory concentration (IC50) against Beta-glucuronidase worked out at 8.4 µM.

On Beta-glucuronidase, `COc1ccc(Br)cc1S(=O)(=O)Nc1cnc2ccccc2c1` displayed an IC50 of 66.5 µM.

In turn, `CS(=O)(=O)Nc1cccc2cccnc12` came in with an IC50 against Beta-glucuronidase of 48.6 µM.

On to `O=S(=O)(Nc1cccc2ncccc12)c1ccc(Cl)cc1Cl`, for which the Ratio IC50 in assay [1] was found to be 24. In addition, at Beta-glucuronidase, it took 2.1 µM to reach half-maximal inhibition (IC50).

The compound `COc1ccc(Br)cc1S(=O)(=O)Nc1cccc2cccnc12` displayed a half-inhibitory concentration (IC50) on Beta-glucuronidase of 68.5 µM.

On Beta-glucuronidase, `O=S(=O)(Nc1cnc2ccccc2c1)c1cc(Cl)ccc1Cl` yielded an IC50 of 5.5 µM.

At Beta-glucuronidase, `O=[N+]([O-])c1cccc(S(=O)(=O)Nc2cnc3ccccc3c2)c1` returned an IC50 of 46.2 µM.

At Beta-glucuronidase, `O=[N+]([O-])c1ccc(S(=O)(=O)Nc2cnc3ccccc3c2)cc1` yielded an IC50 of 31.6 µM.

For the compound `O=[N+]([O-])c1ccc(S(=O)(=O)Nc2cccc3cccnc23)cc1`, it took 31.3 µM to reach half-maximal inhibition at Beta-glucuronidase (IC50).

Turning to `O=S(=O)(Nc1cccc2cccnc12)c1ccccc1`, at Beta-glucuronidase, the IC50 turned out to be 66.4 µM.

For `O=S(=O)(Oc1cccc2cccnc12)c1ccc(Cl)cc1Cl`, it took 9.7 µM to reach half-maximal inhibition against Beta-glucuronidase (IC50).

`Cc1cc(S(=O)(=O)Nc2cccc3cccnc23)c(C)cc1Cl`: on Beta-glucuronidase, the IC50 was determined as 24.5 µM.

Compound `CCCc1ccc(S(=O)(=O)Nc2cccc3ncccc23)cc1` registered an IC50 against Beta-glucuronidase of 75.1 µM.

On to `Cc1cc(S(=O)(=O)Nc2cccc3ncccc23)c(C)cc1Cl`, for which inhibition against Beta-glucuronidase was half-maximal at 23.5 µM (IC50).

`O=[N+]([O-])c1ccccc1S(=O)(=O)Nc1cnc2ccccc2c1`: the IC50 at Beta-glucuronidase stood at 8.1 µM.

The compound `COc1ccc(-c2nc3ccccc3c(=O)[nH]2)cc1O` had an IC50 on Beta-glucuronidase of 2.8 µM.

For the compound `CCCc1ccc(S(=O)(=O)Nc2cccc3cccnc23)cc1`, on Beta-glucuronidase, the IC50 is 70.5 µM.

For the compound `CCCc1ccc(S(=O)(=O)Oc2cccc3cccnc23)cc1`, the IC50 on Beta-glucuronidase came to 84.4 µM.

Turning to `O=[N+]([O-])c1ccccc1S(=O)(=O)Nc1cccc2cccnc12`, in assay [1], the Ratio IC50 turned out to be 3. Besides, on Beta-glucuronidase, the IC50 was determined as 18.2 µM.

With `O=[N+]([O-])c1ccc(S(=O)(=O)Oc2cccc3cccnc23)cc1`, the IC50 against Beta-glucuronidase is 15.4 µM.

On Beta-glucuronidase, `COc1ccc(S(=O)(=O)Nc2cccc3ncccc23)cc1OC` came in with an IC50 of 43.2 µM.

`CCCCCCCCS(=O)(=O)Nc1cnc2ccccc2c1` had an IC50 against Beta-glucuronidase of 75.1 µM.

Regarding `O=[N+]([O-])c1cccc(S(=O)(=O)Nc2cccc3cccnc23)c1`, the Ratio IC50 in assay [1] was found to be 3. On Beta-glucuronidase, this compound registered an IC50 of 16.1 µM.

In the case of `COc1ccc(Br)cc1S(=O)(=O)Oc1cccc2cccnc12`, the concentration for half-maximal inhibition (IC50) against Beta-glucuronidase is 49.5 µM.

The compound `O=[N+]([O-])c1cccc(S(=O)(=O)Nc2cccc3ncccc23)c1` displayed an IC50 on Beta-glucuronidase of 12.2 µM.

For `O=[N+]([O-])c1ccccc1S(=O)(=O)Oc1cccc2cccnc12`, half-maximal inhibition on Beta-glucuronidase (IC50) required 6.4 µM.

As to `O=[N+]([O-])c1cccc(S(=O)(=O)Oc2cccc3cccnc23)c1`, inhibition on Beta-glucuronidase was half-maximal at 30.1 µM (IC50).

For `O=S(=O)(Nc1cccc2ncccc12)c1cc(Cl)ccc1Cl`, half-maximal inhibition against Beta-glucuronidase (IC50) was put at 4.5 µM.

Compound `COc1ccc(S(=O)(=O)Nc2cccc3cccnc23)cc1OC` came in with an IC50 against Beta-glucuronidase of 42.6 µM.

For the compound `O=S(=O)(Nc1cccc2ncccc12)c1cc(Cl)cc(Cl)c1O`, the Ratio IC50 in assay [1] was determined as 30. The IC50 at Beta-glucuronidase came to 1.6 µM.

As for `CCCc1ccc(S(=O)(=O)Nc2cnc3ccccc3c2)cc1`, on Beta-glucuronidase, the half-maximal inhibitory concentration (IC50) is 27.2 µM.

On to `COc1ccc(S(=O)(=O)Nc2cnc3ccccc3c2)cc1OC`, for which the IC50 against Beta-glucuronidase fell in the range of 33.5 to 53.6 µM.

Compound `Cc1cc(S(=O)(=O)Nc2cnc3ccccc3c2)c(C)cc1Cl` registered a concentration for half-maximal inhibition (IC50) on Beta-glucuronidase of 34.4 µM.

The record behind these values is ChEMBL document CHEMBL4130423, “Synthesis, in vitro β-glucuronidase inhibitory potential and molecular docking studies of quinolines” (Eur J Med Chem, 2017).
